Measured values taken from patent US9688760B2, “Anti-leukocyte adhesion for the mitigation of potential adverse events caused by CD3-specific binding domains” (AMGEN RESEARCH (MUNICH) GMBH, priority 2013, dated 2017).

Legend:
[1] = cited from earlier work
stroke patients = details: iv, for several days; equivalent to 700 mg per os; cited from earlier work
HUVEC = test: In vitro flow chamber: T cell-rolling and adhesion on HUVEC, long-term conditions; type: cell-based, human; details: non-stimulated HUVEC, 40 min
Description: (§1) Human brain microvascular endothelial cells (HBMEC) (#1000, Sciencell Research Laboratories) or human umbilical vein endothelial cells (HUVEC) (#C-12200, Promocell) were used as endothelial cell-model. Cryopreserved HBMEC at passage 1 (>5×10^5 cells/ml) were first cultivated in fibronectin-coated Nunclon-treated 75 cm^2 cell culture flasks (#156499, Nunc) at 37° C. and 5% CO2 in a Heraeus Cytoperm 2 (Thermo Scientific) according to the manufacturer's instructions. Sub-cultivation of HBMEC was done with the Detach Kit (#C-41200, Promocell) consisting of HEPES-buffered balanced salt solution (#C-40000, Promocell), trypsin-EDTA solution (0.04%/0.03%) (#C-41000, Promocell) and trypsin neutralization solution (TNS, #C-41100, Promocell). Briefly, the medium was aspirated from the HBMEC-layer and cells were washed with 2 ml of HEPES-buffered balanced salt solution. Addition of 2 ml of trypsin-EDTA solution for 1-5 min at room temperature led to detachment of HBMEC from the flask bottom. Inactivation of trypsin-EDTA solution was performed by addition of 2 ml of trypsin neutralization solution to the cell suspension. Cells were centrifuged at 300 g for 4 min in a Heraeus Megafuge 40 (Thermo Scientific) and seeded at a cell density of 5×10^5 cells per gelatin-coated 75 cm^2 cell culture flask (#L7230, Biochrom). HBMEC for rolling and adhesion experiments were cultivated in RPMI 1640 medium (#FG1215, Biochrom) supplemented with Nu-Serum IV (10%) (#355505, BD Biosciences), dialyzed FBS (10%) (#SZ0115, Biochrom), MEM-vitamins (1%) (#K0373, Biochrom), L-glutamine (1%) (#K0283, Biochrom), sodium-pyruvate (1%) (#L0473, Biochrom), heparin (10 U/ml) (#L6510, Biochrom), and […] cell growth factor ECGS (30 μg/ml) (#02-102, Millipore). Cultivation of HUVEC was done in endothelial cell growth medium (#C-22010, Promocell) supplemented with dialyzed FBS (10%) (#SZ0115, Biochrom) using gelatin-coated 75 cm^2 cell culture flasks. Sub-cultivation of HUVEC was performed with the Detach Kit ([…], Promocell) and cells were seeded at a cell density of 4.0-7.5×10^5 cells per 75 cm^2 cell culture flask.
Isolation of human PBMC from blood was performed by modified density gradient centrifugation as described elsewhere. Briefly, 15-20 ml of freshly drawn heparinized blood was transferred in Biocoll (#L6115, Biochrom)-containing Leukosep tubes (#227290, Greiner bio-one) and centrifuged in a Hettich Rotanta 460 RS Type 5606 (Hettich Laborapparate) at 1066 g for 15 min. After removal of the plasma fraction the PBMC containing phase was transferred in a new tube and washed twice with FACS-buffer (D-PBS #L1820, 5% FBS #SO115, Biochrom). Erythrocyte lysis was performed with lysis buffer (8.29 g/l NH4Cl, 1.00 g/l KHCO3, 0.037 g/l EDTA) for 5 min at room temperature. […]

HBMEC = test: In vitro flow chamber: T cell-rolling on HBMEC, long-term conditions; type: cell-based, human
Description: as §1
Isolation of human PBMC from blood was performed by modified density gradient centrifugation as described elsewhere. Briefly, 15-20 ml of freshly drawn heparinized blood was transferred in Biocoll (#L6115, Biochrom)-containing Leukosep tubes (#227290, Greiner bio-one) and centrifuged in a Hettich Rotanta 460 RS Type 5606 (Hettich Laborapparate) at 1066 g for 15 min. After removal of the plasma fraction the PBMC containing phase was transferred in a new tube and washed twice with FACS-buffer (D-PBS #L1820, 5% FBS #SO115, Biochrom). Erythrocyte lysis was performed with lysis buffer (8.29 g/l NH4Cl, 1.00 g/l KHCO3, 0.037 g/l EDTA) for 5 min at room temperature. For subsequent purification of untouched T cells the human Pan T cell-isolation Kit II (#130-091-156, Miltenyi Biotec) was used according to the manufacturer's instructions.
The ibidi Pump System (#10902, ibidi) was used for cultivation of endothelial cells under flow conditions as well as for performing adhesion and rolling assays of human T cells on endothelial cells. The system consists of the ibidi Pump (#10905, ibidi) and the ibidi Fluidic Unit (#10903, ibidi) which work together to generate a unidirectional flow of medium in an attached slide with a defined channel height. The system is controlled by the ibidi Pump Control software (#10908, notebook+software, ibidi). For cultivation of HBMEC or HUVEC under flow conditions, HBMEC or HUVEC were seeded at a cell density of 2.5×10^6 cells/ml into μ-slide I^0.4 Luer Collagen IV (#80172, ibidi) or μ-slide I^0.4 Luer ibiTreat (#80176, ibidi), respectively according to the manufacturer's instructions and cultivated with a perfusion set “yellow/green” (#10964, ibidi) for 48 h under wall shear stress of 5 or 10 dyn/cm^2, respectively. […]

[2] = pH 6; cited from earlier work
patients = test: Phase 1 clinical study: Blinatumomab with PPS co-medication; type: in vivo, human
Description: In a phase 1 clinical study three patients were treated with Blinatumomab at an initial dose of 5 μg/m^2/day for 1 week followed by a dose escalation to 60 μg/m^2/day for additional 3 to 7 weeks.

CN(C)c1ccc(O)c2c1C[C@H]1C[C@H]3[C@H](N(C)C)C(O)=C(C(N)=O)C(=O)[C@@]3(O)C(O)=C1C2=O [minocycline, Minocycline]
bioavailability ([1]; after oral administration): ~100%
in vivo half-life ([1]; in vivo): approximately 24 hours
daily doses found to be safe and well-tolerated (stroke patients): up to 10 mg/kg
mean T cell-rolling velocity±SD (HUVEC; +AMG 103 10 ng/ml, T cells pre-incubated with 50 μg/ml minocycline): 217±92 μm/sec
mean T cell-rolling velocity±SD (HUVEC; −AMG 103, +minocycline 50 μg/ml): 233±29 μm/sec

natalizumab: antibody approved for the treatment of multiple sclerosis; binds to VLA-4 on T cells [reference compound]
mean T cell-rolling velocity±SD (HBMEC; non-stimulated HBMEC, +AMG 103 10 ng/ml, T cells pre-incubated with 1 μg/ml natalizumab, 40 min): 444±110 μm/sec
mean T cell-rolling velocity±SD (HBMEC; non-stimulated HBMEC, −AMG 103, +natalizumab 1 μg/ml, 40 min): 445±81 μm/sec

β1→4-D-Xylan-2,3-bis(hydrogen sulfate) [PPS, reference compound]
solubility in water [2]: 50%
T cell-counts in peripheral blood vs baseline, 45 minutes after start of infusion or stepwise dose increase (patients; all three patients with PPS co-medication): no decline of T cell-counts
T cell-redistribution kinetics (patients; all three patients with intravenous PPS, absence of CD19-positive target cells): delayed T cell-redistribution kinetics
earliest detection of decreased T cell-counts in peripheral blood after start of infusion or stepwise dose increase of Blinatumomab (patients; intervention with intravenous PPS): ≥ 2 h
discontinuation of Blinatumomab treatment due to neurological adverse effects (patients; three patients with intravenous PPS at start of infusion and dose step, high risk (low B:T cell-ratios)): none of these three patients had to discontinue treatment
mean T cell-rolling velocity±SD (HBMEC; histamine-stimulated HBMEC, +AMG 103 10 ng/ml, +PPS 200 μg/ml, 45 min): 483±157 μm/sec
mean T cell-rolling velocity±SD (HBMEC; histamine-stimulated HBMEC, −AMG 103, +PPS 200 μg/ml, 45 min): 442±156 μm/sec
mean T cell-rolling velocity±SD (HBMEC; non-stimulated HBMEC, +AMG 103 10 ng/ml, +PPS 200 μg/ml, 40 min): 465±116 μm/sec
mean T cell-rolling velocity±SD (HBMEC; non-stimulated HBMEC, −AMG 103, +PPS 200 μg/ml, 40 min): 514±159 μm/sec
